Results from BindingDB's records for doi:10.1021/bi990174x (University of Queensland, 1999).

Molecular target: T1, Dimer of Gag-Pol polyprotein [501-599,Q508K,L534I,L564I,C568A,C596A] (Human immunodeficiency virus 1, UniProt P03367, C568A/C596A/L534I/L564I/Q508K)
T1 construct: 501-599
Assay: Protease Inhibition Assay
Settings: pH 6.5; 37 °C

CCC(=O)N[C@H](C(=O)N[C@@H](Cc1ccc(O)cc1)[C@H](O)CN[C@H]1Cc2ccc(cc2)OCCCNC(=O)[C@H](C(C)CC)NC1=O)C(C)C (stereo partly drawn) [(2S)-N-[(2S,3R)-4-{[(8S,11S)-8-[(2S)-butan-2-yl]-7,10-dioxo-2-oxa-6,9-diazabicyclo[11.2.2]heptadeca-1(15),13,16-trien-11-yl]amino}-3-hydroxy-1-(4-hydroxyphenyl)butan-2-yl]-3-methyl-2-propanamidobutanamide]
Ki: 3 nM
